SMILES	melting point
O=C1c2ccccc2C(O)N1CCCl (stereo unspecified)	133 to 134 °C
Cc1ccn2c(=O)c(CCN3CCN(c4ccc(Cl)cc4)CC3)c(C)nc2c1	156 to 157 °C
Cc1ccc(Sc2cc(C#N)ccc2C#N)cc1	155 °C
O=[N+]([O-])c1c(C2C=CCCC2)ccnc1Cl (stereo unspecified)	54.5 to 55.4 °C
N#Cc1ccc(N2C(=O)N(CCF)C(CF)(CF)C2=O)cc1C(F)(F)F	136 to 137 °C
O=C(O)CCCCCCCCCCc1ccco1	40 to 41 °C
CCn1c(-c2ccccc2)c(C2=CCC(C(=O)O)CC2)c2ccccc21 (stereo unspecified)	147 to 150 °C
CC(=O)Oc1c(C)cc(Oc2ccc3nc(CO)n(C)c3n2)c(C)c1C	179 to 180 °C
NC(=O)C1=C(C(=O)Nc2cc(OC3CCCC3)c(Cl)cc2F)CCCC1	200 to 201 °C
CCOC(=O)c1cnn(-c2ccc(F)cc2)c1C	48 to 49 °C
CCC[C@H]1CC[C@H]([C@H]2CC[C@H](c3cc(F)c(C[C@H](C)c4ccccc4)c(F)c3)CC2)CC1	93.7 °C
COc1ccc(Nc2nc(-c3ccc4scnc4c3)cn3ccnc23)cc1OC	179 to 181 °C
OC1(Cc2ccccc2F)CCN(Cc2ccccc2)C1 (stereo unspecified)	75 to 77 °C
O=C(CCCCCl)c1cc2c3c(c1)CCC(=O)N3CCC2	83 to 84 °C
Clc1ccc2onc(CBr)c2c1	83 to 85 °C
CCN(CC)C(=O)OC12C(=O)c3ccccc3C1(O)Oc1cc(C(C)C)ccc12 (stereo unspecified)	101 to 104 °C
CC1(C)OC[C@H](CON2C(=O)c3ccccc3C2=O)O1	100 to 102 °C
CCN(CC)C(=O)n1ccc(S(=O)(=O)c2cc(Cl)ccc2C)n1	96 to 97 °C
COC(=O)Nc1ccc(OC(=O)OC)cc1	75 to 76 °C
O=C(c1cccc(F)c1)N1CC2CC2(c2ccc(Cl)cc2)C1 (stereo unspecified)	70 to 73 °C
CC[C@H](C)C(OCc1ccccc1)[C@@H]1[C@H]([N+](=O)[O-])[C@H](c2ccccc2)N(C(=O)CN)[C@]1(C)C(=O)NCCC(=O)O (stereo partly specified)	116 °C
O=C(O)CCCc1nc2nc[nH]c2c2nc(-c3ccccc3)nn12	280 °C
CNc1nc(-c2cccc(NC(=O)c3ccc(S(C)(=O)=O)cc3)c2)c2cc(OC)c(OC)cc2n1	277 to 279 °C
O=C(O)c1cc(Cl)cc(Oc2cccc(C(F)(F)F)c2)n1	81 to 82 °C

SMILES	melting point
CCOC(=O)c1ccn2ncc(-c3cccc(Cl)c3)c2n1	126 to 129 °C
NCCC(=O)NCCCO	140 to 142 °C
O=Cc1cn(-c2ccc(Cl)cc2)nc1-c1ccc([N+](=O)[O-])o1	192 to 193 °C
CCc1oc2ccccc2c1C(=O)c1c(Br)cc(Br)c(O)c1Br	153 to 154 °C
CNCC(=O)N1c2ccccc2N2CCc3cccc(c32)C1C (stereo unspecified)	106 to 110 °C
C=C1c2ccn3c(C)c(C)nc3c2N[C@H](c2ccccc2)[C@H]1O	199 to 202 °C
CCOC(=O)c1ccc(N2CCN(Cc3cc(C)c4c(c3)NC(=O)C(C)O4)CC2)nc1 (stereo unspecified)	206 °C
O=c1c2ccccc2[nH]n1C(c1ccccc1)c1ccccc1	179 to 181 °C
O=C(c1[nH]c2ccc(F)cc2c1Sc1ccccc1)N1CCCC1	184 to 186 °C
O=S(=O)(Cc1ccccc1Cl)c1nnc(C(F)(F)F)s1	103 °C
CC(C)/C=C1\NC(=O)CC1=O	134 to 136 °C
Cc1nc(NC(=O)NS(=O)(=O)c2ccccc2C(=O)O)nc2c1CCC2	183 to 184 °C
COC(=O)Oc1ccc(N=Cc2ccc(C#N)cc2)cc1	145 to 146 °C
COc1ccc(N2CCCn3c2nc2c(Cl)ccc(C(OCC(F)(F)F)C4CC4)c23)c(C)n1 (stereo unspecified)	158 to 160 °C
O=c1n(-c2cccc(Cl)c2)c(=O)n(SC(Cl)(Cl)Cl)n1SC(Cl)(Cl)Cl	153 °C
CC1(C)CCC(C)(C)c2cc(C(=O)Nc3ccccc3)ccc21	144 to 146 °C
Cc1nc2c(N)nc3cc(OCCNC(=O)OC(C)(C)C)ccc3c2n1CC(C)C	227 to 228 °C
COc1ccc2cc(Nc3ccc(OCc4ccccc4)cc3)ccc2c1	155 to 157 °C
C=C(C)c1nn(-c2c(Cl)cc(C(F)(F)F)cc2Cl)cc1C1CC1(Br)Br (stereo unspecified)	86.5 to 88.2 °C
CCCCCCCCCCCCCCCCSCC(CO)OC(=O)NC (stereo unspecified)	53 to 55 °C
CCOC(=O)c1cncn1-c1ccc(F)cc1	114 to 115 °C
CC12C=CC(=O)CC1CCC1C2CCC2(C)C(C(=O)NC3(C#N)CCCCC3)CCC12 (stereo unspecified)	292 to 300 °C
CCn1c(=O)n(OCc2ccccc2)c(=O)c2cc(F)c(N3CCN(C)CC3)nc21	178 to 179 °C
COc1cccc(C2=Nc3ccc(N4CCCC4)cc3C(=O)C2)c1OC	258 to 260 °C

SMILES	melting point
CCOC(=O)C1=C(N)NC(N)=C(C(=O)OCC)C1c1cc([N+](=O)[O-])ccc1Cl	130 °C
O=C1OC(OC(=O)c2cccnc2Nc2cccc(C(F)(F)F)c2)c2ccccc21 (stereo unspecified)	159 to 162 °C
COc1ccc2c(c1OC)C(=O)O[C@@H]2[C@H]1c2c(c(I)c3c(c2OC)OCO3)CCN1C	172 to 173 °C
COC1CCN(c2cc(NC(=O)OC(C)(C)C)c([N+](=O)[O-])cc2C#Cc2ccccc2)CC1	147 to 150 °C
Cc1nc(N2CCN(Cc3ccc(C(F)(F)F)cc3)C2=O)sc1-c1cnco1	160 to 162 °C
CCCc1c(OCCCCCCCC(=O)O)ccc(C(C)=O)c1O	73 to 76 °C
CCOC(=O)C(=NOCC(=O)OCC(Cl)(Cl)Cl)c1csc(N)n1	138 to 141 °C
CCN1c2c(occ(C=O)c2=O)-c2ccccc2S1(=O)=O	160 to 162 °C
CC(C)Cn1c(=O)n(C)c(=O)c2c(SCCCO)c(Cc3cccnc3)sc21	119 to 121 °C
CN(C)c1ccc(C(=CC(c2ccc(N(C)C)cc2)c2ccc(N(C)C)cc2)c2ccc(N(C)C)cc2)cc1	189 to 190 °C
O=C(OCCS(=O)(=O)Cc1ccccc1)c1cc(Oc2ccc(C(F)(F)F)cc2Cl)ccc1[N+](=O)[O-]	105 °C
Cc1[nH]c(C#N)c(C)c1-c1nc2ccc(C(=O)c3ccccc3)cc2[nH]1	159 to 163 °C
O=c1nc(-c2cccc(CS(=O)(=O)Cc3ccccc3)n2)sc2ccccc12	246 to 248 °C
CC(=O)c1c(-c2ccc(O)c3ccccc23)oc2ccccc12	212 to 216 °C
COC(=O)[C@H](Cc1ccc([N+](=O)[O-])cc1)NC(C)=O	126 °C
CCN(c1ccc(Cl)cc1[N+](=O)[O-])S(=O)(=O)c1ccc(C#N)cc1	146 to 148 °C
Cc1cc(Oc2cccc(C(F)(F)F)c2)nn1C(=O)Nc1ccc(Cl)c(Cl)c1	97 to 99 °C
Cc1ccc(C(=O)/C=C/c2c(-c3ccc(F)cc3)nc3sccn23)cc1C	210 to 213 °C
CC(C)(C)c1cc2c(c(-c3nc4ccc(S(=O)(=O)C(F)(F)F)cc4c(=O)[nH]3)c1O)CCO2	235 to 237 °C
CCc1nc2c(c(C)c(C)n3nnnc23)n1CCOCCN	181 to 183 °C
Oc1nc(-c2ccccc2)nc(-c2ccccc2)n1	296 to 297 °C
C#CCn1c(Br)c(C[C@H](NC(C)=O)C(=O)OC)c2c(Br)c(OC)c(Br)cc21	284 to 285 °C
Nc1ccc(Oc2ccc(Oc3ccc(Oc4ccc(Oc5ccc(N)cc5)cc4)cc3)cc2)cc1	170 °C

Reference: a melting point compilation (Tetko et al.; mined from patent text by program, amines drawn as free bases though some values may be those of a salt)
